Laboratory results: patent publication US20230117470A1, “SUBSTITUTED PYRAZOLE COMPOUNDS AS TOLL RECEPTOR INHIBITORS” (BRISTOL-MYERS SQUIBB COMPANY, priority 2019, published 2023)

Legend:
Format in all cases: cell-based
[1] = target: T1, human TLR9 (Homo sapiens, UniProt Q9NR96); assay: TLR9 inhibition reporter assay (HEK-Blue cells, SEAP reporter, ODN2006 stimulation); settings: HEK-Blue cells overexpressing human TLR9, SEAP reporter, ODN2006 5 nM
T1 construct: host or cells: HEK-Blue cells
T1 sequence (Q9NR96 26-1032): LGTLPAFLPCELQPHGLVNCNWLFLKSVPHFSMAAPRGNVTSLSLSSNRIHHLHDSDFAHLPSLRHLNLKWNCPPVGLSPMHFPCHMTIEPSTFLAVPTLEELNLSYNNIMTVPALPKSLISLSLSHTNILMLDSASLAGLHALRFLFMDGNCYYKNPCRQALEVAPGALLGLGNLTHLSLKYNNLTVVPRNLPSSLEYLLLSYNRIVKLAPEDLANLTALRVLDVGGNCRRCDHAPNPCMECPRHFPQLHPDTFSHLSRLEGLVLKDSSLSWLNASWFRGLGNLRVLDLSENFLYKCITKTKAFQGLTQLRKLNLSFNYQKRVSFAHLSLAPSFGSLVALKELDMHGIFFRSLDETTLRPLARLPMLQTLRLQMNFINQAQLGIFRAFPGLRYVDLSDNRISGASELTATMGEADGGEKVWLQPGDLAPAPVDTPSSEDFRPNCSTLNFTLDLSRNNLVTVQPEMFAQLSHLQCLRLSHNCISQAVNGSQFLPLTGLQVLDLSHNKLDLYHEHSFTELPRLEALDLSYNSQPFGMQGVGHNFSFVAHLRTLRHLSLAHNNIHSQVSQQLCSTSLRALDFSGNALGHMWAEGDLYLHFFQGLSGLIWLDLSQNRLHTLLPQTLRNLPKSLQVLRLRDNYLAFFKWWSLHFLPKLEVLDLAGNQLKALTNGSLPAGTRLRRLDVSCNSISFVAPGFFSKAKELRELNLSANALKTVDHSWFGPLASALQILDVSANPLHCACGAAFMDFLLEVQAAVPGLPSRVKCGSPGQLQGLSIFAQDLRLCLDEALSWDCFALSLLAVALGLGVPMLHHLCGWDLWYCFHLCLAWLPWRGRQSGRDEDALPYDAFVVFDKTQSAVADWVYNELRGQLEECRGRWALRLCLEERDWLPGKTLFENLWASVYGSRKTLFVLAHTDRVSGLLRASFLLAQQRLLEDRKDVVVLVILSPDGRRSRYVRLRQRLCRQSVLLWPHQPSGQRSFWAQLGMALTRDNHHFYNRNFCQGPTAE
Method in brief: (§1)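 HEK-Blue cells overexpressing human TLR7, TLR8 or TLR9, with an NF-κB/AP-1-driven SEAP reporter, pre-treated 30 min at room temperature with compound (0.05 nM-50 μM final). Stimulated with 7.5 μM gardiquimod (TLR7), 15.9 μM R848 (TLR8) or 5 nM ODN2006 (TLR9), then 22 h at 37° C. SEAP read with HEK-Blue Detection; % inhibition set against agonist+DMSO and known-inhibitor wells.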

[2] = target: T2, human TLR7 (Homo sapiens, UniProt Q9NYK1); assay: TLR7 inhibition reporter assay (HEK-Blue cells, SEAP reporter, gardiquimod stimulation); settings: HEK-Blue cells overexpressing human TLR7, SEAP reporter, gardiquimod 7.5 μM
T2 construct: host or cells: HEK-Blue cells
T2 sequence (Q9NYK1 27-1049): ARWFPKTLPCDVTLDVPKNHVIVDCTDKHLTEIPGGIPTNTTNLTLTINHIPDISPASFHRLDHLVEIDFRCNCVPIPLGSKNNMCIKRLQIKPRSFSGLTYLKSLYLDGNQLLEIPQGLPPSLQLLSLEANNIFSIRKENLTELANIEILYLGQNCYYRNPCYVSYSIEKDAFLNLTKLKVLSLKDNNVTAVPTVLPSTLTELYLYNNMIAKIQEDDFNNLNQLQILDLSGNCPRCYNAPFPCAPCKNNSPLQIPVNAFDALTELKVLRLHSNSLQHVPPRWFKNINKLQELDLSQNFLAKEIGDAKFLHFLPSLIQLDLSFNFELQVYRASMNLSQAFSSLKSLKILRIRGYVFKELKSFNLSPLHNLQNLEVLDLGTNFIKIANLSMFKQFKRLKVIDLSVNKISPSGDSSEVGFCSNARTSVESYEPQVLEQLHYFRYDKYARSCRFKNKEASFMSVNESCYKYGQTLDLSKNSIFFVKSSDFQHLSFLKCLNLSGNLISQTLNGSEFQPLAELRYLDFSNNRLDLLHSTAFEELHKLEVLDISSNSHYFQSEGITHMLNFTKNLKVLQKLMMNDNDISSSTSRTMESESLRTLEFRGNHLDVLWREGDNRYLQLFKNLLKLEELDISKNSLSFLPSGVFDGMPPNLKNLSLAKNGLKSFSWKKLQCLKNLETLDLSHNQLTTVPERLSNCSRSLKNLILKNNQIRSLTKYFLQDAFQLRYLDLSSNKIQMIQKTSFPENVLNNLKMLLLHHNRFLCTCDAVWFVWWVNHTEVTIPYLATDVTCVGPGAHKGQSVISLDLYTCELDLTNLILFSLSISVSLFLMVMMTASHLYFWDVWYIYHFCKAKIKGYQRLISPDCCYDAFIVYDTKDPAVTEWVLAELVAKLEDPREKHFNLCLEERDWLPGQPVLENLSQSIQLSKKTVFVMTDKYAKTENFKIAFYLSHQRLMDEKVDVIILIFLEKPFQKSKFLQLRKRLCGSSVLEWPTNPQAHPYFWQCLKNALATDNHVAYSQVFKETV
Method in brief: as §1

[3] = target: T3, human TLR8 (Homo sapiens, UniProt Q9NR97); assay: TLR8 inhibition reporter assay (HEK-Blue cells, SEAP reporter, R848 stimulation); settings: HEK-Blue cells overexpressing human TLR8, SEAP reporter, R848 15.9 μM
T3 construct: host or cells: HEK-Blue cells
T3 sequence (Q9NR97 27-1041): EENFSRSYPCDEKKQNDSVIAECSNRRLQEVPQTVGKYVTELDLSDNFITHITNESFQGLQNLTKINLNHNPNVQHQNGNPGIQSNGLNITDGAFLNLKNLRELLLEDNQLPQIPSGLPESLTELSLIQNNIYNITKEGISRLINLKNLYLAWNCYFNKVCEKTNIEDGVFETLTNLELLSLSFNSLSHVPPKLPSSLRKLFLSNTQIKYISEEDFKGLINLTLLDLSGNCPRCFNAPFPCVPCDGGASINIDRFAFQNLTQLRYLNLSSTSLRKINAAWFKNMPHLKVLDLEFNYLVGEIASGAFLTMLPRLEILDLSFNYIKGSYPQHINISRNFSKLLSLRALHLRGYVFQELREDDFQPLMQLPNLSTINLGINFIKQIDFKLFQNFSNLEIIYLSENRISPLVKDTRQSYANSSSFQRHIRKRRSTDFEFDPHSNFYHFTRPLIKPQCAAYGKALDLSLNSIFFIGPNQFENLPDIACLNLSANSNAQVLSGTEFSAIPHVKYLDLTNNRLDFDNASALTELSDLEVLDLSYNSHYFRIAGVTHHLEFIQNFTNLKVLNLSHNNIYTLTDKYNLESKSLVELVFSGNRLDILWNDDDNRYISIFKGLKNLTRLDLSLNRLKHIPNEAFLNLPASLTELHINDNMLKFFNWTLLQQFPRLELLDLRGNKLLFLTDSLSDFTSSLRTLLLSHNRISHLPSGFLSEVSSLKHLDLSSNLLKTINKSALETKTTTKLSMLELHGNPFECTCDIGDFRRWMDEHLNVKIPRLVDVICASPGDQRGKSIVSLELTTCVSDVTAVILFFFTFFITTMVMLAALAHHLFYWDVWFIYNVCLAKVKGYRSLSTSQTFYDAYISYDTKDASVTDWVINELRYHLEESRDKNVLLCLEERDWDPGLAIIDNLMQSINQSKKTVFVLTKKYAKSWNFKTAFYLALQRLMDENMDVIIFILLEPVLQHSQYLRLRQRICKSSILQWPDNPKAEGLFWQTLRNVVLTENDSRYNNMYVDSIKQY
Method in brief: as §1

| Compound | IC50 [1] | IC50 [2] | IC50 [3] |
| --- | --- | --- | --- |
| Cc1cc(-c2[nH]nc(C(=O)NC3CCN(C4COC4)CC3)c2C(C)C)cn2ncnc12 [Example 70] | 6610 nM | 0.58 nM | 1.46 nM |
| Cc1cc(-c2[nH]nc(C(=O)N3CCC(N)CC3)c2C(C)C)cn2ncnc12 [Example 55] | > 50000 nM | 2.99 nM | 1.15 nM |
| Cc1cc(-c2[nH]nc(C(=O)N[C@H]3CC[C@H](NC4CCOC(C)(C)C4)CC3)c2C(C)C)cn2ncnc12 (stereo partly drawn) [Example 115] | 1210 nM | 11.7 nM | 17 nM |
| Cc1cc(-c2[nH]nc(C(=O)NC3CCN(C4COC4)CC3)c2CC(F)(F)F)cn2ncnc12 [Example 200] | 10100 nM | 0.92 nM | 0.39 nM |
| Cc1cc(-c2[nH]nc(C(=O)N[C@H]3CC[C@H](N(CCC(C)C)CCC(C)C)CC3)c2C(C)C)cn2ncnc12 [Example 108] | 5700 nM | 1.34 nM | 4.49 nM |
| Cc1cc(-c2[nH]nc(C(=O)N[C@H]3CC[C@@H](NCc4cncnc4)CC3)c2C(C)C)cn2ncnc12 [Example 102] | 3890 nM | 0.37 nM | 14 nM |
| COc1ncc(CN2CCC(NC(=O)c3n[nH]c(-c4cc(C)c5ncnn5c4)c3C(C)C)CC2)cn1 [Example 157] | 16400 nM | 37.4 nM | 11.9 nM |
| Cc1cc(-c2[nH]nc(C(=O)NC3CCN(CC(F)(F)F)CC3)c2C(C)C)cn2ncnc12 [Example 173] | 7790 nM | 8.56 nM | 7.58 nM |
| Cc1noc(C)c1CN[C@H]1CC[C@@H](NC(=O)c2n[nH]c(-c3cc(C)c4ncnn4c3)c2C(C)C)CC1 [Example 93] | 12000 nM | 1.89 nM | 15.6 nM |
| Cc1cc(-c2[nH]nc(-c3cccnc3)c2C(C)C)cn2ncnc12 [Example 224] | 9030 nM | 0.56 nM | 0.63 nM |
| Cc1cc(-c2[nH]nc(C(=O)N[C@H]3CC[C@H](N(CC4CC4)CC4CC4)CC3)c2C(C)C)cn2ncnc12 [Example 103] | 3600 nM | 48 nM | 3.46 nM |
| COc1cc(-c2[nH]nc(C(=O)NC3CCNCC3)c2C(C)C)cn2ncnc12 [Example 60] | > 50000 nM | 36.6 nM | 27.9 nM |

The remaining lines, values ahead:

| IC50 [1] | IC50 [2] | IC50 [3] | Compound |
| --- | --- | --- | --- |
| 6310 nM | 4.29 nM | 0.49 nM | COc1cc(-c2[nH]nc(-c3ccc(C4CN(C(C)C)C4)cc3)c2C(C)C)cn2ncnc12 [Example 331] |
| 12300 nM | 7.77 nM | 1.53 nM | Cc1cc(-c2[nH]nc(C3CCC(N(C)C(=O)C4CNC4)CC3)c2C(C)C)cn2ncnc12 (stereo not drawn) [compound 301] |
| 16100 nM | 22.4 nM | 37.4 nM | COc1c(C)c(-c2[nH]nc(-c3ccc(C4CCN(CC5CCOCC5)CC4)cn3)c2C(C)C)cn2ncnc12 [Example 388] |
| 42400 nM | 8.27 nM | 7.61 nM | COc1cc(-c2[nH]nc(-c3ccc(C4CN(CC(C)(C)O)C4)cc3)c2C(C)C)cn2ncnc12 [Example 337] |
| > 50000 nM | 67.9 nM | 35.8 nM | Cc1cc(-c2[nH]nc(-c3nc4c(s3)CN(C(C)C)CC4)c2C(C)C)cn2ncnc12 [Example 252] |
| 13500 nM | 36.9 nM | 35.7 nM | COc1cc(-c2[nH]nc(-c3cnc(C4CCN(CC(=O)N(C)C)CC4)cn3)c2C(C)C)cn2ncnc12 [Example 401] |
| 42500 nM | 5.87 nM | 4.42 nM | Cc1cc(-c2[nH]nc(-c3ccc4c(c3)CCN(C3COC3)C4)c2C(C)C)cn2ncnc12 [Example 247] |
| 29800 nM | 16.4 nM | 2.1 nM | Cc1cc(-c2[nH]nc(-c3ccc(N(C)C)cc3)c2C(C)C)cn2ncnc12 [Example 243] |
| 9920 nM | 1.96 nM | 0.27 nM | Cc1cc(-c2[nH]nc(-c3cncc(NC(C)C)c3)c2C(C)C)cn2ncnc12 [Example 239] |
| > 50000 nM | 7.7 nM | 2.71 nM | Cc1cc(-c2[nH]nc(C3CCC(NCCN(C)C)CC3)c2C(C)C)cn2ncnc12 (single isomer, unassigned) [Example 285] |
| 7410 nM | 1.56 nM | 0.43 nM | Cc1cc(-c2[nH]nc(C3CCC(N(C)CC(=O)N(C)C)CC3)c2C(C)C)cn2ncnc12 (stereo not drawn) [Example 298, 2-((4-(4-isopropyl-5-(8-methyl-[1,2,4]triazolo[1,5-a]pyridin-6-yl)-1H-pyrazol-3-yl)cyclohexyl)(methyl)amino)-N,N-dimethylacetamide] |
